Experiments:
[1] = target: T1, β-Secretase (BACE1) (Homo sapiens, UniProt P56817); experiment: β-Secretase inhibition assay (fluorogenic substrate IV); format: biochemical; conditions: read-out: BACE1 % Inhibition (at 25 µM) (±SEM)
T1 construct: purchased Sino Biological
Description: β-Secretase enzyme was reconstituted with 50 mM Tris (pH 7.5), 10% glycerol to yield concentration of 0.5 unit/µL. The enzyme stock solution was diluted with 100 mM sodium acetate buffer (pH 4.5) to 0.01 unit/µL. Thirty microliters of enzyme solution were added to each well that contained 20 µL of 5% DMSO of test compound. Then, fifty microliters of 50 µM β-secretase substrate IV from Calbiochem were added to the reaction plate. […] The assays were run in triplicate.

[2] = target: T2, amyloid-β (1-42) peptide (Homo sapiens, UniProt P05067); experiment: Amyloid β aggregation assay (ThT fluorescence); format: biochemical; conditions: Aβ(1-42), 48 h, read-out: Anti-Aβ aggregation % Inhibition (at 100 µM) (±SEM)
T2 construct: Stock solution of amyloid-β (1-42) peptide (Anaspec; 1384 µM in 1% NH4OH); purchased Anaspec
Description: Nine microliters amyloid-β solution was added to a greiner transparent 96 well plate. One microliter of each test compounds (1,000 µM in DMSO) were added to each well and mixed gently by tapping. The final concentrations of each compound were 100 µM in 10% DMSO. The reaction plate was incubated in dark at 37 °C for 48 h. After incubation, 200 µL of 5 µM ThT (Sigma) in 50 mM Tris buffer (pH 7.4) was added to each well. The fluorescence was measured at Ex = 446 nm and Em = 490 nm by using SpectraMax Gemini EM^TM [30]. The assays were run in triplicate.

[3] = Fe (II) chelation capacity assay (ferrozine)
Description: An aqueous solution of 0.2 mM ferrous sulphate was prepared. Fifty microliters of this solution was added to 96 well plate, then 40 µL of 500 µM of test compounds in 50% DMSO were added to each well followed by DI water to adjust the volume to 150 µL. The mixtures were incubated at room temperature for 10 min. After incubation, 50 µL of 1 mM ferrozine (Sigma) was added to the reaction mixture. The absorbance was measured at 562 nm by using infinite 200 pro^TM, Tecan. EDTA was used as a positive control. Chelation capacity of each compounds were calculated. Compounds having chelating capacity over than 50% were evaluated for stoichiometric ratio of compound: metal.

[4] = Free radical scavenging assay (DPPH)
Description: The test samples were prepared in 50% DMSO at 500 µM. Seventy microliters of DPPH solution (500 µM in methanol) was added to 96 well plate. The assay mixture was adjusted to 80 µL volume by methanol. After adjusting the volume, 20 µL of test compounds was added to each well. The reaction plate was incubated at room temperature in dark for 30 min. The absorbance was measured at 517 nm by using infinite 200 pro^TM, Tecan. Ascorbic acid was used as a positive control. Percent inhibition was calculated and compounds showing activity were evaluated for the IC50 values.

[5] = target: T2, amyloid-β (1-42) peptide; experiment: Amyloid β aggregation assay (ThT fluorescence); format: biochemical; conditions: Aβ(1-42), read-out: Anti-Aβ aggregation IC50

T2 sequence (P05067 672-713 limits assumed): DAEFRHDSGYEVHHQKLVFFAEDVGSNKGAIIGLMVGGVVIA
T1 sequence (P56817 46-501): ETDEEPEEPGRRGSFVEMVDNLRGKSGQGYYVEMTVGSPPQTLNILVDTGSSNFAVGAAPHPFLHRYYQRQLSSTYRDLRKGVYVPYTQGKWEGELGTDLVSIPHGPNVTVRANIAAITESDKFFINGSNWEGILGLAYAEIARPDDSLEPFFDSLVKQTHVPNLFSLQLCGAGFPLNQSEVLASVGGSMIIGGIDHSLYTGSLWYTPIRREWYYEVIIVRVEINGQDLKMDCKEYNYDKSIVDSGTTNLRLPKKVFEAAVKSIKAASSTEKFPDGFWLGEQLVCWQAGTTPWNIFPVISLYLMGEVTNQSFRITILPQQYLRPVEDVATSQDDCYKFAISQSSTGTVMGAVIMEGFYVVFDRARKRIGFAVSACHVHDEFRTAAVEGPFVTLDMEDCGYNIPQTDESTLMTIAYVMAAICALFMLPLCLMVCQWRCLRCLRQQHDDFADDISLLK

IC50 [5]	IC50 [4]	Compound	melting point	inhibition at 25 µM [1]	inhibition at 100 µM [2]	Fe chelation % Capacity (at 100 µM) (±SEM) [3]	DPPH % Inhibition (at 100 µM) (±SEM) [4]
		N[C@@H](Cc1c[nH]c2ccccc12)Cn1cc(CNC(=O)c2cc(O)cc(O)c2)nn1 [Compound 12f, (S)-N-((1-(2-Amino-3-(1H-indol-3-yl)propyl)-1H-1,2,3-triazol-4-yl)methyl)-3,5-dihydroxybenzamide]	68 to 70 °C	16.6%	3.8%	13.06 (±0.16) %	1.32 (±0.78) %
110 µM	130 µM	COc1cc(/C=C/C(=O)NCc2cn(C[C@@H](N)Cc3c[nH]c4ccccc34)nn2)ccc1O [Compound 12g, (S,E)-N-((1-(2-Amino-3-(1H-indol-3-yl)propyl)-1H-1,2,3-triazol-4-yl)methyl)-3-(4-hydroxy-3-methoxyphenyl)acrylamide]	118 to 119 °C	16.2%	46.1%		40.79 (±0.31) %

From article PMC3618987, “From BACE1 Inhibitor to Multifunctionality of Tryptoline and Tryptamine Triazole Derivatives for Alzheimer’s Disease” (Molecules, 2012)
